The target in assay [1] is T1, TRP-M8 receptor (Homo sapiens, UniProt Q7Z2W7). Put plainly: FLIPR calcium influx assay in HEK cells transfected with human TRP-M8. The assay is classed as cell-based. Also on record: expressed in transfected cells; host or cells: HEK (human embryonic kidney) cells, permanently transfected. The note with it: HEK cells with human TRP-M8, Fura-2, 29 or 37° C. From the text: (§1) Cooling Actions on Skin. […] In Vitro Assays for TRP-M8 Activation. […] Brit. J Pharmacol. 2004 Feb; 141(4):737-45], and by A. K. Vogt-Eisele, D. Bura, H. Hatt, and E. T. Wei. [N-Alkylcarboxamide Cooling Agents: Activities on Skin and Cells with TRPM8 and TRPA1 Receptors. Acta Dermato-Venereol. 85: 468, 2005.] The data here were collected for the applicant by Dr. Afrodite Lourbakos of Unilever Research and Development, the Netherlands, using similar transfection methods and a FLIPR assay system. For the patch-clamp studies, using measurements of intracellular voltage changes, some of the data reported here were collected by Dr. Matthias Bödding of the University of the Saarland, and by Dr. Angela Vogt-Eisele of the Ruhr University at Bochum, Germany. FLIPR assay Human embryonic kidney (HEK) cells were permanently trausfected with plasmids containging the cDNA coding for the gene for the human TRP-M8 receptor. These cells were then incubated with a calcium fluorescence indicator (Fura-2) and incubated at either 29 or 37° C. These cells were then distributed into a 96-well fluorescence-plate image reader with automated drug dilution and computerized software for dose-response analysis. Cacium ion influx into cells after stimulation with compounds was quantified in fluorescence units. Compounds were dissolved in DMSO by ultrasonication to a 0.1 M solution. 5 μl of this stock was added to 5 mg of cyclodextrin and 5 ml of 140 Na-Tyrode, to achieve various final test concentrations.

The target of assay [2] is T1, TRP-M8 receptor. Put plainly: Patch-clamp whole-cell recordings in TRP-M8 transfected HEK cells. The assay is classed as cell-based. The note with it: whole-cell configuration, room temperature (20-23° C.). Further details: expressed in transfected cells; host or cells: HEK (human embryonic kidney) cells, permanently transfected.
Excerpt: as §1
Patch-Clamp Electrophysiological Recordings. HEK cells were prepared as above. Membrane currents were recorded in the whole-cell configuration using an EPC-9 amplifier (HEKA Elektronik, Lambrecht, Germany) as described previously (Bödding et al. 2002). […] Extracellular solution contained (in mM): 145 NaCl, 2 CaCl2, 2.8 KCl, 2 MgCl2, 11 glucose, 10 HEPES, adjusted to pH 7.2 with NaOH. Drugs were applied in the bath solution by a custom-made local perfusion system. The series resistance was compensated for 80 % and ranged between 5 and 10 MΩ. Currents were filtered using an 8-pole Bessel filter at 2.9 kHz and digitised at 100 μs. Voltage ramps (−110 mV to 90 mV in 50 ms) were applied at 0.5 Hz from a holding potential of −10 mV using PULSE software (HEKA Electronics). Several parameters such as capacitance, series resistance and holding current were monitored simultaneously at a slower rate (2 Hz) using the X-Chart display (HEKA Electronics). A liquid junction potential of 10 mV was applied to all voltages. All experiments were carried out at room temperature (20-23° C.). Internal solutions were kept on ice to minimize hydrolysis of ATP.

T1 sequence (Q7Z2W7 whole entry): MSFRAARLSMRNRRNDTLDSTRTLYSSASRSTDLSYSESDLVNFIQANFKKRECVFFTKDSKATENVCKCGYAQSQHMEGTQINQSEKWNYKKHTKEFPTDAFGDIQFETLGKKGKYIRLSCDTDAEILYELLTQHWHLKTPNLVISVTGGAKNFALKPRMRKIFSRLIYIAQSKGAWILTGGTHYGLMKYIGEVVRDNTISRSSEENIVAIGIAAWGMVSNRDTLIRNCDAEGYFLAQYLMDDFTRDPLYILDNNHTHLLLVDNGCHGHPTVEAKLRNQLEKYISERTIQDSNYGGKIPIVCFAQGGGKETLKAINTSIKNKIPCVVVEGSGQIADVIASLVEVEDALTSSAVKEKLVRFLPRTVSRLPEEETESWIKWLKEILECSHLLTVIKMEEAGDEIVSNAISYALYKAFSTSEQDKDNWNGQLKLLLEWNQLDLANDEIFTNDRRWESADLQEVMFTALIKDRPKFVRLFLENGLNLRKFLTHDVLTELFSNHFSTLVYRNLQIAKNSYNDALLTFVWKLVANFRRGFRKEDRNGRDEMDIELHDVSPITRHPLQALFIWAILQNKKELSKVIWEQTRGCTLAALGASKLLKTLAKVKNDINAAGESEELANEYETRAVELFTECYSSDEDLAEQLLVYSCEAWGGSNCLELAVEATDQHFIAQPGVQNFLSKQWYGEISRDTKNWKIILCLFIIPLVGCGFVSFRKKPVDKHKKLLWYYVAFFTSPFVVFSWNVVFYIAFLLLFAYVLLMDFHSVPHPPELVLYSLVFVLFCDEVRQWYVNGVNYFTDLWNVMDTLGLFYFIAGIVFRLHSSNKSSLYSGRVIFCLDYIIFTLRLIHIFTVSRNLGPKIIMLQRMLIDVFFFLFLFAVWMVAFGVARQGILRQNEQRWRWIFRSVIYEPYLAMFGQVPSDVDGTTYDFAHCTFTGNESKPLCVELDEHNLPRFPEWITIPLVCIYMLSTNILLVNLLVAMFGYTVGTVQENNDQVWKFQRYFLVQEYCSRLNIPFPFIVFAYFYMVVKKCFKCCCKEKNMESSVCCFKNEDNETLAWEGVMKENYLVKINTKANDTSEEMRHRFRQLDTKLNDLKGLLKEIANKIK

The EC50 is the midpoint of the concentration-response curve. As to `O=C1NC(c2cccc([N+](=O)[O-])c2)=CCN1c1ccccc1O` [icilin, reference compound], the EC50 in assay [1] is 0.8 µM; in assay [2], 1.4 µM.

These data come from patent US20070053834A1, “Radioligands for the TRP-M8 receptor and methods therewith” (priority 2003, published 2007).
